Measurements from patent US10968200B2, “Salts of an LSD1 inhibitor and processes for preparing the same” (priority 2018, dated 2021).
Where a name gives a salt, the structure may show the parent alone.

How the values were obtained:
[1] = molecular target: T1, LSD-1 enzyme (LSD1/KDM1A) (Homo sapiens, UniProt O60341); test: LANCE LSD1/KDM1A histone demethylase biochemical assay; conditions: 1 nM LSD-1 enzyme, 1 hour preincubation at 25° C., Biotin-labeled Histone H3 peptide substrate
T1 construct: purchased ENZO BML-SE544-0050
Procedure: LANCE LSD1/KDM1A demethylase assay-10 μL of 1 nM LSD-1 enzyme (ENZO BML-SE544-0050) in the assay buffer (50 mM Tris, pH 7.5, 0.01% Tween-20, 25 mM NaCl, 5 mM DTT) were preincubated for 1 hour at 25° C. with 0.8 μL compound/DMSO dotted in black 384 well polystyrene plates. Reactions were started by addition of 10 μL of assay buffer containing 0.4 μM Biotin-labeled Histone H3 peptide substrate: ART-K(Me1)-QTARKSTGGKAPRKQLA-GGK(Biotin) SEQ ID NO:1 (AnaSpec 64355) and incubated for 1 hour at 25° C. Reactions were stopped by addition of 10 μL 1× LANCE Detection Buffer (PerkinElmer CR97-100) supplemented with 1.5 nM Eu-anti-unmodified H3K4 Antibody (PerkinElmer TRF0404), and 225 nM LANCE Ultra Streptavidin (PerkinElmer TRF102) along with 0.9 mM Tranylcypromine-HCl (Millipore 616431). After stopping the reactions plates were incubated for 30 minutes and read on a PHERAstar FS plate reader (BMG Labtech).

[2] = Competitive slurry experiment, stability relationship between Forms II-V; assay type: physicochemical; conditions: competitive slurry of Forms II-V in methanol, 23-25° C., 65-75% humidity, XRPD after 4 h and 20 h
Procedure: The transformation of Compound 1 di-HCl solid forms was evaluated in competitive slurry experiments in methanol at 23-25° C. and 65-75% humidity. The experiments were performed with a mixture of four polymorphs (Form II through Form V), according to the following procedure.
10.0 mg of Compound 1 di-HCl Form II was added to a saturated solution of Compound 1 di-HCl Form II in methanol (1.0 mL) and stirred to give a thin slurry. A mixture of Form III (10.29 mg), Form IV (10.39 mg), and Form V (10.95 mg) were added to the slurry. The mixture was stirred for 4 h at 25° C.
A portion of the mixture was filtered after 4 h. The filtered solids were analyzed by XRPD and determined to be Form II in addition to a minor amount of amorphous solid.
A portion of the mixture was filtered after 20 h. The filtered solids were analyzed by XRPD and determined to be Form II in addition to a minor amount of amorphous solid. The sample was then dried under vacuum at 46-48° C. for 36 h. The dried solids were analyzed by XRPD and determined to be Form II.

IC50 [1]	relative stability of solid forms [2]	Compound
≤ 100 nM	–	N#CCC1(N2CCC(N[C@@H]3C[C@H]3c3ccccc3)CC2)CN(S(N)(=O)=O)C1 [Compound 1, 3-(cyanomethyl)-3-(4-{[(1R,2S)-2-phenylcyclopropyl]amino}piperidin-1-yl)azetidine-1-sulfonamide]
–	most stable form	N#CCC1(N2CCC(N[C@@H]3C[C@H]3c3ccccc3)CC2)CN(S(N)(=O)=O)C1 [Form II, 3-(cyanomethyl)-3-(4-{[(1R,2S)-2-phenylcyclopropyl]amino}piperidin-1-yl)azetidine-1-sulfonamide dihydrochloride]
